Experimental data from patent EP1071411B1, “TOPICAL IMMUNOSTIMULATION TO INDUCE LANGERHANS CELL MIGRATION” (TORREY PINES INSTITUTE FOR MOLECULAR STUDIES, priority 1998, dated 1999).

What was measured:
EG7-OVA cells = assay: Tumor-specific immunity after topical vaccination, subcutaneous tumor challenge, tumor size; type: in vivo, C57BL/6; conditions: for inhibiting tumor cell growth: Figure 4
Experimental: (§1) The C57BL/6 thymoma tumor cell line, EL4, was transfected with the complete gene for chicken ovalbumin (OVA). The resulting transfected cell line, EG7-OVA, expresses chicken ovalbumin. […] Based on the positive results using FITC, the inventors followed a similar protocol in an attempt to induce immunity to the EG7-OVA tumor by topical administration of the well-characterized, synthetic […] tumor-associated peptide.
C57BU6 mice were treated as follows: 1) shaving alone; 2) topical administration of acetone and dibutylphthalate; 3) […] (240 :g/ml) in DMSO diluted in PBS, followed in 5 hours by acetone and dibutylphthalate; and 4) […] (240 :g/ml) in acetone and dibutylphthalate. All mice were subsequently injected subcutaneously with 5 × 10^5 EG7-OVA cells (5-times the minimal tumorogenic dose). Tumor-specific immunity was monitored by measuring tumor size.
(§2) The mucous membranes lack the tough barrier posed by the stratum corneum. […] The EL4 parent tumor cell line, lacking chicken ovalbumin, was used as a […]; no immunity against the EL4 tumor cells was seen. Thus, the inventors' hypothesis regarding penetration of the stratum corneum was confirmed; the […] peptide was not reaching the Langerhans cells underlying the stratum corneum.
While intravaginal topical administration of tumor antigen provided an effective means of routing antigen to the Langerhans cells for subsequent induction of tumor-specific immunity, mucous membrane application sites, like the vagina, are not well-suited for convenient use and monitoring by general practitioners likely to be involved in administering the topical vaccinations of the present invention. Thus, to enhance the effectiveness of cutaneous topical administration, […] was dissolved in DMSO and applied to the skin without dilution. Dibutylphthalate in acetone was applied to the same site 5 hr later. All mice were subsequently injected subcutaneously with 5 x 10^5 EG7-OVA cells. The results shown in Figure 6 indicate that the peptide in DMSO was able to traverse the stratum corneum, effectively gaining access to the Langerhans cells. Tumor growth was suppressed after 6 to 9 days and even the established tumors were completely eliminated by 16 days post-inoculation. Thus, the tumor specific peptide, […], in concentrated DMSO, penetrated the stratum corneum, was incorporated into the MHC class I molecule K^b on epidermal Langerhans cells, and in the presence of the migration inducer, dibutylphthalate, was effectively presented to CD8+ CTLs in the lymph nodes.

EL4 tumor cells = assay: Specificity control of intravaginal topical vaccination, parent tumor challenge; type: in vivo, C57BL/6; conditions: intravaginal topical application, SIINFEKL in acetone and dibutylphthalate; Figure 5
Excerpt: as §1, §2

Langerhans cells = assay: FITC Langerhans cell migration screening, draining inguinal lymph node, flow cytometry; type: in vivo, C57BL/6 mice; conditions: for Total MHC class II^th cells, distance from the positive control, dibutylphthalate (DBP): 5 mg/ml FITC in acetone and migration inducer, 100 µl, after 2 days, Figure 7; for FITC+ Langerhans cell number / total dendritic cell migration into the lymph node / nonspecific immigration: agent added to topical FITC in acetone, 2 days after treatment, Figure 1
Excerpt: Fluorescein isothiocyanate (FITC) has been used extensively by the inventor and others, to characterize Langerhans cell migration. FITC is a small (mw 389) non-peptide, largely lipophilic molecule, capable of crossing the stratum corneum. Immunogenicity of FITC is due to the reactivity of its isothiocyanate group (-N-C-S) with free amino groups, permitting it to be covalently bound to proteins and/or peptides. C57BL/6 mice received the following treatments: 1) none; 2) abdomen shaving only; 3) topical administration of FITC in acetone; 4) topical administration of FITC in acetone and olive oil; 5) topical administration of FITC in acetone and DMSO diluted in phosphate buffered saline (PBS); and 6) topical administration of FITC in acetone and dibutylphthalate. The draining inguinal lymph nodes were then examined for immigrant Langerhans cells by immunofluorescent flow cytometry each day thereafter. Migratory Langerhans cells were identified by the presence of FITC and expression of high MHC class II molecules or by a Langerhans cell-specific monoclonal antibody (NLDC-145). Other dendritic cell residents of the lymph nodes could also be differentiated using a dendritic cell-specific monoclonal antibody, 33D1. The uptake of FITC and the Langerhans cell response to migratory signals were observable in the draining lymph node as early as six hours after topical administration. However, 48-72 hours was required for maximal rate of immigration into the lymph node. Figure 1 illustrates the effect of the various treatment regimens on total and FITC + lymphoid dendritic cells 2 days after treatment. […] Thus, dibutylphthalate was a very potent migration inducer.
High numbers of FITC+ Langerhans cells were present in the lymph node by 12 hours and the peak frequency of immigrant FITC+ Langerhans cells occurred about 2 to 3 days following topical administration. […] The unlabeled dendritic cells were most likely Langerhans cells that had lost the FITC label. Five days after skin painting, the lymph node cell population had increased by approximately 7.2 fold over baseline levels.
Compounds which are useful as inducers of Langerhans cell migration may be screened using the standard FITC methods described for the data presented in Figures 1-3. C57BL6 mice are shaved on their abdomens and painted with 100 µl test solution, containing 5 mg/ml FITC in a 50150 (v/v) mixture of acetone and the migration inducer (e.g. dibutylphthalate). After 2 days, the draining inguinal lymph node is removed and the total number of dendritic cells (both FITC+ and FITC-) is determined by flow cytometry and MHC class II immunoassay.

[1] = iontophoresis; cited from earlier work

CC[C@H](C)[C@H](NC(=O)[C@@H](NC(=O)[C@@H](N)CO)[C@@H](C)CC)C(=O)N[C@@H](CC(N)=O)C(=O)N[C@@H](Cc1ccccc1)C(=O)N[C@@H](CCC(=O)O)C(=O)N[C@@H](CCCCN)C(=O)N[C@@H](CC(C)C)C(=O)O
inhibiting tumor cell growth (EG7-OVA cells; cutaneous, SIINFEKL (240 :g/ml) in DMSO diluted in PBS, followed in 5 hours by acetone and dibutylphthalate): none of the treatment protocols were effective | inhibiting tumor cell growth (EG7-OVA cells; cutaneous, SIINFEKL (240 :g/ml) in acetone and dibutylphthalate): none of the treatment protocols were effective | time by which established tumors were completely eliminated (EG7-OVA cells; cutaneous, SIINFEKL in undiluted DMSO, dibutylphthalate in acetone at same site 5 hr later, Figure 6): ≤ 16 days post-inoculation | protection against the tumor (EG7-OVA cells; intravaginal topical application, SIINFEKL in acetone and dibutylphthalate, Figure 5): complete protection | immunity against the EL4 tumor cells (EL4 tumor cells): no immunity

CC12CCC(CC1=O)C2(C)C (stereo not shown) [C, camphor]
Total MHC class II^th cells, distance from the positive control, dibutylphthalate (DBP) (Langerhans cells): ≤ 1 standard deviation

CCCCOC(=O)[C@@H](O)[C@H](O)C(=O)OCCCC [DBT, dibutyl-D-tartrate]
Total MHC class II^th cells, distance from the positive control, dibutylphthalate (DBP) (Langerhans cells): ≤ 1 standard deviation

C[S+](C)[O-] [DMSO, dimethylsulfoxide]
FITC+ Langerhans cell number (Langerhans cells): no enhancement | total dendritic cell migration into the lymph node / nonspecific immigration (Langerhans cells): modest stimulatory effect

CCCCCCCCCOC(=O)c1ccccc1C(=O)OCCCCCCCCC [DNP, dinonylphthalate]
Total MHC class II^th cells, distance from the positive control, dibutylphthalate (DBP) (Langerhans cells): ≤ 1 standard deviation

CCCCOC(=O)c1ccccc1C(=O)OCCCC [dibutylphthalate]
inhibiting tumor cell growth (EG7-OVA cells; cutaneous topical acetone and dibutylphthalate without peptide, 5 × 10^5 EG7-OVA cells s.c.): none of the treatment protocols were effective | FITC+ Langerhans cell number (Langerhans cells): striking effect | total dendritic cell migration into the lymph node / nonspecific immigration (Langerhans cells): striking effect

NC(=O)CC[C@@H]1NC(=O)[C@H](Cc2ccccc2)NC(=O)[C@H](Cc2ccc(O)cc2)NC(=O)[C@@H](N)CSSC[C@@H](C(=O)N2CCC[C@H]2C(=O)N[C@@H](CCCN=C(N)N)C(=O)NCC(N)=O)NC(=O)[C@H](CC(N)=O)NC1=O [vassopressin]
fraction that crossed the stratum corneum [1]: about 0.4 % per hour

Fluorescein isothiocyanate [FITC]
time required for maximal rate of immigration into the lymph node (Langerhans cells; after topical administration): 48 to 72 h

dibenzylbutylphthalate [DBBP]
Total MHC class II^th cells, distance from the positive control, dibutylphthalate (DBP) (Langerhans cells): ≤ 1 standard deviation
